Assay results published in US20260022100A1, “NAV1.8 INHIBITOR” (Wuhan Humanwell Innovative Drug Research and Development …, priority 2022, published 2026).
pIC50: −log10 of the molar value.

Columns and labels:
[1] = Pharmacokinetic assay in mice; type: in vivo; settings: male, ICR, mouse, plasma, oral intragastric administration, 10 mg/kg
Description: Pharmacokinetic assay in mice was performed, wherein the mice used were 3 male ICR mice and fasted overnight. The mice were orally intragastrically dosed with the medicament (10 mg/kg). Blood was collected before administration and at 15 min, 30 min and 1 h, 2 h, 4 h, 6 h, 8 h, and 24 h after administration. Blood samples were centrifuged at 8000 rpm for 6 min at 4° C., and plasma was collected and stored at −20° C. The plasma at each time point was taken, and 3-5 times its amount of an acetonitrile solution containing an internal standard was added for mixing. The mixture was vortexed for 1 min and then centrifuged at 13000 rpm at 4° C. for 10 min. The supernatant was taken, and 3 times its amount of water was added for mixing. A proper amount of the resulting mixture was taken for LC-MS/MS analysis. The major pharmacokinetic parameters were analyzed using a non-compartmental model in the WinNonlin 7.0 software.

[2] = target: Nav1.8 ion channel (Homo sapiens (Human), UniProt Q9Y5Y9); test: Inhibitory activity on Nav1.8 ion channel, whole-cell patch-clamp on HEK293/Nav1.8; type: cell-based; settings: HEK293/Nav1.8, whole-cell patch clamp, holding -80 mV, 1 μM TTX
Description: Reagents were purchased from Sigma (St. Louis, MO) except NaOH and KOH for acid-base titration. The final concentrations of the test compounds were all prepared on the day of the test and then dissolved in an extracellular fluid. The extracellular fluid (mM) was NaCl, 137; KCl, 4; CaCl2), 1.8; MgCl2, 1; HEPES, 10; glucose 10; and pH 7.4 (NaOH titration). All test and control compound solutions contained 1 μM TTX. The intracellular fluid (mM) was: aspartic acid, 140; magnesium chloride, 2; ethylene glycol tetraacetic acid (EGTA), 11; and N-2-hydroxyethylpiperazine-N′-2-ethanesulfonic acid (HEPES), 10. The pH was adjusted to 7.4 with cesium hydroxide.
The test compounds were dissolved in dimethylsulfoxide (DMSO) at a concentration of 9 mM. On the day of the test, the compounds were then dissolved in the extracellular fluid and prepared into the required concentration.
The cells were transferred to a perfusion chamber and perfusion was carried out using the extracellular fluid. The intracellular fluid was thawed on the day of the experiment. The electrodes were produced by pulling with PC-10 (Narishige, Japan). Whole-cell patch-clamp recording was carried out. Noise was filtered at one fifth of the sampling frequency. The intracellular fluid with ¼ length of the electrode tube was added into the electrode, and the electrode was installed on a probe. The required Protocol was set, the interface was adjusted to Membrane test, and Stage was adjusted to Bath. A positive pressure was applied in the electrode. The tip of the electrode was contacted with the cell. The three-way valve of the air extractor was adjusted to a three-way state. A negative pressure was then applied to the electrode, so that the electrode and the cell formed a high-resistance seal. Stage was adjusted to Patch, and leak was controlled within −200 pA. A negative pressure was successively applied, so that cell membranes were broken, and a current path was formed. Perfusion was carried out by opening the suction filtration device and the extracellular fluid valve. The cell current was observed, and administration was started when the cell current was stable (at least 3 sweep current curves were overlapped). Administration was performed from low concentration to high concentration. The administration time of each concentration was not less than 2 min, and when the current was stable, the concentration was changed for administration.
For administration of the test samples, perfusion was carried out using a perfusion system utilizing the self gravity. […] During the period, the CV % of all peak current amplitudes should be less than 10% to exclude up and down fluctuations of the initial current. The average of the peak current amplitudes recorded for the last 10 times during the initial recording served as the current peak of the negative control. After the initial current was stable, the test samples were dosed starting from a low concentration until the 10 recorded peak currents were again stable or the peak currents were “constant” after and before administration after continuous administration for 5 min. We defined the following two cases as “stable” or “constant”: 1) if the absolute average of the peak current for 10 consecutive scans exceeded 200 pA and the CV value was less than 10%, 2) or the average of the peak current for 10 consecutive scans was between 200 pA and 50 pA and the CV value was less than 30%. The next detection of higher concentration was then given.
The average of the peak current of the last 10 scans of each concentration was taken as the peak current for that concentration for data analysis. If the stable state was not reached within 5 min, the peak current average of the last 10 scans at that time was used for data analysis as the peak current for that concentration. At the same time, the cells were discarded and no longer used for detection of higher concentration. At least two cells were tested per concentration of the compounds. […]

[3] = test system: spinal nerve-ligated rats; test: Spinal nerve ligation neuropathic pain model in rats (Von-Frey mechanical pain threshold); type: in vivo, male SD rat; settings: SNL rats
Source text: A male SD rat weighing 180-220 g was placed on an operating table in a prone position after anesthesia. An incision was made along the spinal column near the hip bone of the animal, and the fascia and muscle were separated. The L5 transverse process was carefully snapped off with a tweezer. The L5 nerve was separated with a glass needle, and the L5 nerve was ligated with 5-0 ligature. The muscle and the skin were sutured and disinfected with iodophor. After 14 days of modeling, the animals were divided into different groups, 10 animals each group. Different compounds were separately orally administered intragastrically. Mechanical pain thresholds of the animals were detected with Von-Frey fiber filaments at different time points after administration. The specific administration dose and detection time are detailed in Table 3 below.
The mechanical pain threshold detection method: The pelma of the hind limb to be tested of the test animal was continuously stimulated using the Von-Frey fiber filament to bend the fiber filament, and the foot shrinking reaction of the animal was observed. The tested animals were stimulated one by one according to the sequence of the gram number of the fiber filaments from small to large, and each gram number of the fiber filament was continuously used for stimulation for 5 times. If less than 3 positive reactions were present, the procedure described above was repeated using a larger grade of fiber filament, and if 3 or more positive reactions were present for the first time in the test, the fiber filament was the pain threshold for that animal (3 tests per animal for the average). Fiber filament gram number: 0.6, 1.0, 1.4, 2.0, 4.0, 6.0, 8.0, 10.0, and 15.0; the cut value was 15.0 g.

Structure (SMILES)	AUC(0-t) [1]	Cmax [1]	Tmax [1]	half-life [1]	pIC50 [2]	Mechanical pain threshold (Mean ± SD), base value before modeling ([3]; 100 mpk group, baseline before modeling)	Mechanical pain threshold (Mean ± SD), 3 h after administration ([3]; 100 mpk oral intragastric, 3 h)	Mechanical pain threshold (Mean ± SD), 6 h after administration ([3]; 100 mpk oral intragastric, 6 h)
[2H]C([2H])([2H])Oc1cc(F)ccc1Oc1cc(Cl)c(Cl)cc1C(=O)Nc1cnc[n+]([O-])c1 [Compound I-21, 5-(4,5-dichloro-2-(4-fluoro-2-(trideuteromethoxy)phenoxy)benzamido)pyrimidine 1-oxide]	2490 ng·h/mL	1400 ng/mL	0.5 h	1.32 h				
Cc1cc(F)ccc1Oc1cc(C(F)(F)F)c(Cl)cc1C(=O)Nc1cnc[n+]([O-])c1 [Compound I-31, 5-(5-chloro-2-(4-fluoro-2-methylphenoxy)-4-(trifluoromethyl)benzamido)pyrimidine 1-oxide]					8.01			
COc1cc(OC(F)(F)F)ccc1Oc1cc(Cl)c(Cl)cc1C(=O)Nc1cnc[n+]([O-])c1 [Compound I-18, 5-(4,5-dichloro-2-(2-methoxy-4-(trifluoromethoxy)phenoxy)benzamido)pyrimidine 1-oxide]	3340 ng·h/mL	1390 ng/mL	0.5 h	1.22 h	8.62			
[2H]C([2H])([2H])Oc1cc(OC(F)(F)F)ccc1Oc1cc(Cl)c(Cl)cc1C(=O)Nc1cnc[n+]([O-])c1 [Compound I-24, 5-(4,5-dichloro-2-(2-(methoxy-d3)-4-(trifluoromethoxy)phenoxy)benzamido)pyrimidine 1-oxide]	4560 ng·h/mL	1870 ng/mL	0.5 h	1.78 h	8.66			
O=C(Nc1cnc[n+]([O-])c1)c1c(Oc2ccc(OC(F)F)cc2)cc(C(F)(F)F)c(Cl)c1F [Compound I-25, 5-(3-Chloro-6-(4-(difluoromethoxy)phenoxy)-2-fluoro-4-(trifluoromethyl)benzamido)pyrimidine 1-oxide]					8.54			
O=C(Nc1ccc[n+]([O-])c1)c1c(Oc2ccc(F)c3c2OC(F)(F)O3)cc(Cl)c(Cl)c1F [Compound I-32, 3-(3,4-Dichloro-2-fluoro-6-((2,2,7-trifluorobenzo[d][1,3]dioxol-4-yl)oxy)benzamido)pyridine-1-oxide]					9.15			
O=C(Nc1ccc[n+]([O-])c1)c1c(Oc2ccc(F)c3c2OC(F)(F)O3)cc(C(F)(F)F)c(Cl)c1F [Compound I-11, 3-(3-Chloro-2-fluoro-6-((2,2,7-trifluorobenzo[d][1,3]dioxol-4-yl)oxy)-4-trifluoromethyl-benzamido)pyridine 1-oxide]	9070 ng·h/mL	2240 ng/mL	1 h	2.18 h	9.19	13.0 ± 2.8 g	13.6 ± 2.0 g	12.1 ± 2.5 g
O=C(Nc1ccc[n+]([O-])c1)c1cc(Cl)c(C(F)(F)F)cc1Oc1ccc(SC(F)(F)F)cc1 [Compound I-15]	539000 ng·h/mL	30000 ng/mL	8 h	34 h				
O=C(Nc1cnc[n+]([O-])c1)c1c(Oc2ccc(OC(F)(F)F)cc2)cc(Cl)c(Cl)c1F [Compound I-19, 5-(3,4-Dichloro-2-fluoro-6-(4-(trifluoromethoxy)phenoxy)benzamido)pyrimidine 1-oxide]	19200 ng·h/mL	8880 ng/mL	0.5 h	2 h	9.01			
O=C(Nc1cnc[n+]([O-])c1)c1c(Oc2ccc(OC(F)(F)F)cc2)ccc(C(F)(F)F)c1F [Compound I-20, 5-(2-fluoro-6-(4-(trifluoromethoxy)phenoxy)-3-(trifluoromethyl)benzamido)pyrimidine 1-oxide]	96200 ng·h/mL	8010 ng/mL	4 h	2.87 h				
[2H]C([2H])([2H])Oc1cc(F)c(F)cc1Oc1cc(C(F)(F)F)c(Cl)c(F)c1C(=O)Nc1cnc[n+]([O-])c1 [Compound I-28, 5-(3-chloro-6-(4,5-difluoro-2-(methoxy-d3)phenoxy)-2-fluoro-4-(trifluoromethyl)benzamido)pyrimidine 1-oxide]					8.89			
O=C(Nc1cnc[n+]([O-])c1)c1cc(Cl)c(C(F)(F)F)cc1Oc1ccc(OC(F)(F)F)cc1 [Compound I-2, 5-(5-Chloro-2-(4-(trifluoromethoxy)phenoxy)-4-(trifluoromethyl)benzamido)pyrimidine-1-oxide]					7.96			
O=C(Nc1ccc[n+]([O-])c1)c1cc(Cl)c(C(F)(F)F)cc1Oc1ccc(F)c2c1OC(F)(F)O2 [Compound I-23, 3-(5-chloro-2-((2,2,7-trifluorobenzo[d][1,3]dioxol-4-yl)oxy)-4-(trifluoromethyl)benzamido)pyridine 1-oxide]	37900 ng·h/mL	3450 ng/mL	1 h	2.53 h	8.54			
O=C(Nc1ccc[n+]([O-])c1)c1cc(Cl)c(Cl)cc1Oc1ccc(F)c2c1OC(F)(F)O2 [Compound I-22, 3-(4,5-Dichloro-2-((2,2,7-trifluorobenzo[d][1,3]dioxol-4-yl)oxy)benzamido)-pyridine 1-oxide]	12700 ng·h/mL	3090 ng/mL	1 h	2.88 h	8.09			
Cc1cc(F)ccc1Oc1cc(C(F)(F)F)c(Cl)c(F)c1C(=O)Nc1cnc[n+]([O-])c1 [Compound I-34, 5-(3-chloro-2-fluoro-6-(4-fluoro-2-methylphenoxy)-4-(trifluoromethyl)benzamido)pyrimidine 1-oxide]					8.85			
